{
  "source": "ChEMBL document CHEMBL3045666",
  "about": "“The phytotoxicity of natural tetramic acid derivatives” (Pest Manag Sci, 2011)",
  "key": {"Desmodesmus subspicatus": {"tested_on": "Desmodesmus subspicatus", "assay": "Antimicrobial activity against Scenedesmus subspicatus SAG 86.81 assessed as growth inhibition", "type": "functional"}, "Tetradesmus obliquus": {"tested_on": "Tetradesmus obliquus", "assay": "Antimicrobial activity against Acutodesmus obliquus SAG 276-1 assessed as growth inhibition", "type": "functional"}, "Synechococcus": {"tested_on": "Synechococcus", "assay": "Antimicrobial activity against cyanobacteria Synechococcus PCC 6911 assessed as growth inhibition", "type": "functional"}, "Lemna minor [1]": {"tested_on": "Lemna minor", "assay": "Herbicidal activity against Lemna minor (common duckweed) at 100 uM", "type": "functional"}, "[2]": {"assay": "Inhibition of PS2 at 100 uM"}, "Lemna minor [3]": {"tested_on": "Lemna minor", "assay": "Herbicidal activity against Lemna minor (common duckweed) at 50 uM", "type": "functional", "conditions": "read-out: GI"}, "[4]": {"assay": "Inhibition of PS2 at 50 uM"}, "Avena fatua [5]": {"tested_on": "Avena fatua", "assay": "Herbicidal activity against Avena fatua assessed as growth reduction at 3 mg/ha", "type": "functional"}, "Setaria faberi [6]": {"tested_on": "Setaria faberi", "assay": "Herbicidal activity against Setaria faberi (Giant Foxtail) assessed as growth reduction at 3 mg/ha", "type": "functional"}, "Ipomoea hederacea [7]": {"tested_on": "Ipomoea hederacea", "assay": "Herbicidal activity against Ipomoea hederacea (ivy-leaved morning glory) assessed as growth reduction at 3 mg/ha", "type": "functional"}, "Helianthus annuus [8]": {"tested_on": "Helianthus annuus", "assay": "Herbicidal activity against Helianthus annuus (sunflower) assessed as growth reduction at 3 mg/ha", "type": "functional"}, "Avena fatua [9]": {"tested_on": "Avena fatua", "assay": "Herbicidal activity against Avena fatua assessed as growth reduction at 1 mg/ha", "type": "functional"}, "Ipomoea hederacea [10]": {"tested_on": "Ipomoea hederacea", "assay": "Herbicidal activity against Ipomoea hederacea (ivy-leaved morning glory) assessed as growth reduction at 1 mg/ha", "type": "functional"}, "Setaria faberi [11]": {"tested_on": "Setaria faberi", "assay": "Herbicidal activity against Setaria faberi (Giant Foxtail) assessed as growth reduction at 1 mg/ha", "type": "functional"}, "Helianthus annuus [12]": {"tested_on": "Helianthus annuus", "assay": "Herbicidal activity against Helianthus annuus (sunflower) assessed as growth reduction at 1 mg/ha", "type": "functional"}},
  "data": [
    {"smiles": "CCCCCC#CC#C/C=C/CC(C)C[C@@H]1C[C@H](C)/C(=C2/C(=O)C(C)N(C)C2=O)N1N", "note": "(stereo not given in full) [FISCHERELLIN A]", "values": [
      {"measurement": "MIC", "setting": "Desmodesmus subspicatus", "result": 0.5, "unit": "µM"},
      {"measurement": "MIC", "setting": "Tetradesmus obliquus", "result": 0.5, "unit": "µM"},
      {"measurement": "MIC", "setting": "Synechococcus", "result": 0.5, "unit": "µM"},
      {"measurement": "inhibition at 100 µM", "setting": "Lemna minor [1]", "result": 74, "unit": "%"},
      {"measurement": "inhibition", "setting": "[2]", "result": 98, "unit": "%"},
      {"measurement": "inhibition of growth at 50 µM", "setting": "Lemna minor [3]", "result": 44, "unit": "%"},
      {"measurement": "inhibition", "setting": "[4]", "result": 60, "unit": "%"}
    ]},
    {"smiles": "C[C@H]1CCC[C@H]2O[C@@H]2COc2ccc(cc2)C[C@H]2NC(=O)/C(=C/1O)C2=O", "note": "[MACROCIDIN A]", "values": [
      {"measurement": "growth inhibition (GI)", "setting": "Avena fatua [5]", "result": 0, "unit": "%"},
      {"measurement": "growth inhibition (GI)", "setting": "Setaria faberi [6]", "result": 65, "unit": "%"},
      {"measurement": "growth inhibition (GI)", "setting": "Ipomoea hederacea [7]", "result": 0, "unit": "%"},
      {"measurement": "growth inhibition (GI)", "setting": "Helianthus annuus [8]", "result": 50, "unit": "%"}
    ]},
    {"smiles": "C[C@@H]1/C(O)=C2/C(=O)N[C@H](Cc3ccc(cc3)OC[C@H]3O[C@@H]3CCC1O)C2=O", "note": "(stereo not given in full) [MACROCIDIN B]", "values": [
      {"measurement": "growth inhibition (GI)", "setting": "Avena fatua [9]", "result": 0, "unit": "%"},
      {"measurement": "growth inhibition (GI)", "setting": "Ipomoea hederacea [10]", "result": 0, "unit": "%"},
      {"measurement": "growth inhibition (GI)", "setting": "Setaria faberi [11]", "result": 20, "unit": "%"},
      {"measurement": "growth inhibition (GI)", "setting": "Helianthus annuus [12]", "result": 50, "unit": "%"}
    ]}
  ]
}
